Results from patent publication EP0318056A2, “Novel antibiotics and process for preparing the same” (MEIJI SEIKA KAISHA LTD., priority 1987, dated 1989).
Converted amounts (≈) assume the structure as drawn.

Tests used:
P-388 = assay: Cytotoxicity on tumor cells; format: cell-based; details: P388; P-388, mouse leukemia; 37°C, 72 hours, 5% CO₂; probit method; read-out: IC₅₀
L-1210 = assay: Cytotoxicity on tumor cells; format: cell-based; details: L1210; L-1210, mouse leukemia; 37°C, 72 hours, 5% CO₂; probit method; read-out: IC₅₀
Meth-A = assay: Cytotoxicity on tumor cells; format: cell-based; details: mouse fibrosarcoma, 37°C, 72 hours, 5% CO₂, probit method, read-out: IC₅₀
B16 = assay: Cytotoxicity on tumor cells; format: cell-based; details: B16, mouse melanoma; 37°C, 72 hours, 5% CO₂; probit method; read-out: IC₅₀
K562 = assay: Cytotoxicity on tumor cells; format: cell-based; details: K562, human leukaemia; 37°C, 72 hours, 5% CO₂; probit method; read-out: IC₅₀
PC10 = assay: Cytotoxicity on tumor cells; format: cell-based; details: PC10, human lung cancer; 37°C, 72 hours, 5% CO₂; probit method; read-out: IC₅₀
PC13 = assay: Cytotoxicity on tumor cells; format: cell-based; details: PC-13; PC13, human lung cancer; 37°C, 72 hours, 5% CO₂; probit method; read-out: IC₅₀
PC14 = assay: Cytotoxicity on tumor cells; format: cell-based; details: PC-14; PC14, human lung cancer; 37°C, 72 hours, 5% CO₂; probit method; read-out: IC₅₀
HMV-1 = assay: Cytotoxicity on tumor cells; format: cell-based; details: HMV-1, human melanoma; 37°C, 72 hours, 5% CO₂; probit method; read-out: IC₅₀
KB = assay: Cytotoxicity on tumor cells; format: cell-based; details: human nasopharynx, 37°C, 72 hours, 5% CO₂, probit method, read-out: IC₅₀
HL-60 = assay: Cytotoxicity on tumor cells; format: cell-based; details: HL-60, human leukemia; 37°C, 72 hours, 5% CO₂; probit method; read-out: IC₅₀
[1] = mice, dose of 200 mg/kg (i.p.)
[2] = test system: Bacillus anthracis No. 119; assay: microbe, parasite or virus in culture; format: cell-based; details: NO.119, read-out: Minimum Inhibitory Concn.
[3] = test system: Citrobacter freundii GN 346; assay: Antimicrobial activity, serial dilution method on agar plate; format: cell-based; details: GN346, read-out: Minimum Inhibitory Concn.
Procedure: (§1) The antimicrobial activity of SF2582 A and B on various test microorganisms shown in Table 2 below were determined by the serial dilution method on agar plate, and the minimum inhibitory concentrations (µg/ml) obtained are shown in Table 2 below.

[4] = test system: Enterococcus faecalis ATCC 8043; assay: as above; format: cell-based; details: ATCC8043, read-out: Minimum Inhibitory Concn.
Procedure: as §1

Escherichia coli JC-2 = assay: as above; format: cell-based; details: JC2, read-out: Minimum Inhibitory Concn.
Procedure: as §1

[5] = test system: Escherichia coli JR 661 W/677; assay: as above; format: cell-based; details: JR661W/677, read-out: Minimum Inhibitory Concn.
Procedure: as §1

Escherichia coli No. 29 = assay: as above; format: cell-based; details: read-out: Minimum Inhibitory Concn.
Procedure: as §1

[6] = test system: Escherichia coli W 3630 RGN 823; assay: as above; format: cell-based; details: W3630RGN823, read-out: Minimum Inhibitory Concn.
Procedure: as §1

[7] = test system: Klebsiella pneumoniae 22 #3038; assay: as above; format: cell-based; details: read-out: Minimum Inhibitory Concn.
Procedure: as §1

[8] = test system: Klebsiella pneumoniae PCI 602; assay: as above; format: cell-based; details: PCI602, read-out: Minimum Inhibitory Concn.
Procedure: as §1

[9] = test system: Manthomonas maltophilia M-0627; assay: as above; format: cell-based; details: read-out: Minimum Inhibitory Concn.
Procedure: as §1

Morganella morganii Kono = assay: as above; format: cell-based; details: read-out: Minimum Inhibitory Concn.
Procedure: as §1

Proteus mirabilis GN 310 = assay: as above; format: cell-based; details: GN310, read-out: Minimum Inhibitory Concn.
Procedure: as §1

Proteus vulgaris OX 19 = assay: as above; format: cell-based; details: OX19, read-out: Minimum Inhibitory Concn.
Procedure: as §1

[10] = test system: Providencia rettgeri J-0026; assay: as above; format: cell-based; details: J0026, read-out: Minimum Inhibitory Concn.
Procedure: as §1

[11] = test system: Pseudomonas aeruginosa MB-3829; assay: as above; format: cell-based; details: MB3829, read-out: Minimum Inhibitory Concn.
Procedure: as §1

[12] = test system: Salmonella enteritidis No. 11; assay: as above; format: cell-based; details: Salmonella enterica, read-out: Minimum Inhibitory Concn.
Procedure: as §1

Salmonella sp. D-0001 = assay: as above; format: cell-based; details: SP.D0001, read-out: Minimum Inhibitory Concn.
Procedure: as §1

Salmonella typhi O-901-W = assay: as above; format: cell-based; details: Salmonella enterica, read-out: Minimum Inhibitory Concn.
Procedure: as §1

[13] = test system: Salmonella typhimurium LT-2; assay: as above; format: cell-based; details: Salmonella enterica, read-out: Minimum Inhibitory Concn.
Procedure: as §1

[14] = test system: Serratia marcescens MB-3848; assay: as above; format: cell-based; details: MB3848, read-out: Minimum Inhibitory Concn.
Procedure: as §1

[15] = test system: Shigella sonnei EW 33 Type 1; assay: as above; format: cell-based; details: EW33TYPE1, read-out: Minimum Inhibitory Concn.
Procedure: as §1

[16] = test system: Staphylococcus aureus 209P JC-1; assay: as above; format: cell-based; details: read-out: Minimum Inhibitory Concn.
Procedure: as §1

[17] = test system: Staphylococcus aureus No. 26; assay: as above; format: cell-based; details: read-out: Minimum Inhibitory Concn.
Procedure: as §1

[18] = test system: Staphylococcus aureus Smith S-424; assay: as above; format: cell-based; details: SMITHS424, read-out: Minimum Inhibitory Concn.
Procedure: as §1

[19] = test system: Staphylococcus epidermidis 109; assay: as above; format: cell-based; details: read-out: Minimum Inhibitory Concn.
Procedure: as §1

[20] = test system: Staphylococcus epidermidis ATCC 14990; assay: as above; format: cell-based; details: ATCC14990, read-out: Minimum Inhibitory Concn.
Procedure: as §1

P-388 tumor cells = assay: Antitumor activity in mice intraperitoneally implanted with P-388 tumor cells; format: in vivo; details: P-388 mice
[21] = qualitative, in the named solvents
in vivo = details: mouse, ip

Compound	MIC [2]	MIC [3]	MIC [4]	MIC (Escherichia coli JC-2)	MIC [5]	MIC (Escherichia coli No. 29)	MIC [6]	MIC [7]	MIC [8]	MIC [9]	MIC (Morganella morganii Kono)	MIC (Proteus mirabilis GN 310)	MIC (Proteus vulgaris OX 19)	MIC [10]	MIC [11]	MIC [12]	MIC (Salmonella sp. D-0001)	MIC (Salmonella typhi O-901-W)	MIC [13]	MIC [14]	other results
COC(=O)C1(C)Nc2c(O)cc3c(c2C1=O)C(CO)CN3C(=O)c1cc2cc(OC)c(OC)c(OC)c2[nH]1 (stereo not shown)	–	–	–	–	–	–	–	–	–	–	–	–	–	–	–	–	–	–	–	–	IC50 (P-388): 9.4 µg/mL (≈ 17.9 µM); IC50 (L-1210): 1.3 µg/mL (≈ 2.47 µM); IC50 (Meth-A): 42 µg/mL (≈ 79.9 µM); IC50 (B16): 5.1 µg/mL (≈ 9.7 µM); IC50 (K562): 35.6 µg/mL (≈ 67.7 µM); IC50 (PC10): 14.1 µg/mL (≈ 26.8 µM); IC50 (PC13): 39.5 µg/mL (≈ 75.2 µM); IC50 (PC14): > 50 µg/mL; IC50 (HMV-1): 12.1 µg/mL (≈ 23 µM); IC50 (KB): 18 µg/mL (≈ 34.3 µM); IC50 (HL-60): 31.5 µg/mL (≈ 59.9 µM); death in acute toxicity test [1]: no case of death
COC(=O)C1(C)Nc2c(O)cc3c(c2C1=O)C(CCl)CN3C(=O)c1cc2cc(OC)c(OC)c(OC)c2[nH]1 (stereo not shown) [SF2582 A]	0.05 µg/mL (≈ 0.0919 µM)	3.13 µg/mL (≈ 5.75 µM)	0.05 µg/mL (≈ 0.0919 µM)	12.5 µg/mL (≈ 23 µM)	12.5 µg/mL (≈ 23 µM)	6.25 µg/mL (≈ 11.5 µM)	6.25 µg/mL (≈ 11.5 µM)	25 µg/mL (≈ 46 µM)	25 µg/mL (≈ 46 µM)	100 µg/mL (≈ 184 µM)	50 µg/mL (≈ 91.9 µM)	25 µg/mL (≈ 46 µM)	> 100 µg/mL	25 µg/mL (≈ 46 µM)	25 µg/mL (≈ 46 µM)	0.78 µg/mL (≈ 1.43 µM)	12.5 µg/mL (≈ 23 µM)	3.13 µg/mL (≈ 5.75 µM)	12.5 µg/mL (≈ 23 µM)	25 µg/mL (≈ 46 µM)	MIC [15]: 3.13 µg/mL (≈ 5.75 µM); MIC [16]: < 0.025 µg/mL; MIC [17]: < 0.025 µg/mL; MIC [18]: < 0.025 µg/mL; MIC [19]: < 0.025 µg/mL; MIC [20]: 0.05 µg/mL (≈ 0.0919 µM); T/C (effect of improving incidence of survival) (P-388 tumor cells; dose 0.033 mg/kg intraperitoneally, once a day for consecutive 2 days): 114%; T/C (effect of improving incidence of survival) (P-388 tumor cells; dose 0.13 mg/kg intraperitoneally, once a day for consecutive 2 days): 148%; T/C (effect of improving incidence of survival) (P-388 tumor cells; dose 0.54 mg/kg intraperitoneally, once a day for consecutive 2 days): 128%; T/C (effect of improving incidence of survival) (P-388 tumor cells; dose 2.14 mg/kg intraperitoneally, once a day for consecutive 2 days): 80%; Solubility [21]: soluble in methanol, ethyl acetate, acetone, chloroform, or dimethyl sufoxide; insoluble in water or haxane; LD50 at 336 h (in vivo): 0.25 to 1 mg/kg
COC(=O)C1(C)Nc2c(O)cc3c(c2C1=O)CC(Cl)CN3C(=O)c1cc2cc(OC)c(OC)c(OC)c2[nH]1 (stereo not shown) [SF2582 B]	0.05 µg/mL (≈ 0.0919 µM)	6.25 µg/mL (≈ 11.5 µM)	0.1 µg/mL (≈ 0.184 µM)	25 µg/mL (≈ 46 µM)	25 µg/mL (≈ 46 µM)	12.5 µg/mL (≈ 23 µM)	12.5 µg/mL (≈ 23 µM)	> 100 µg/mL	50 µg/mL (≈ 91.9 µM)	100 µg/mL (≈ 184 µM)	50 µg/mL (≈ 91.9 µM)	25 µg/mL (≈ 46 µM)	50 µg/mL (≈ 91.9 µM)	25 µg/mL (≈ 46 µM)	50 µg/mL (≈ 91.9 µM)	1.56 µg/mL (≈ 2.87 µM)	25 µg/mL (≈ 46 µM)	3.13 µg/mL (≈ 5.75 µM)	25 µg/mL (≈ 46 µM)	25 µg/mL (≈ 46 µM)	MIC [15]: 6.25 µg/mL (≈ 11.5 µM); MIC [16]: 0.05 µg/mL (≈ 0.0919 µM); MIC [17]: < 0.025 µg/mL; MIC [18]: < 0.025 µg/mL; MIC [19]: 0.05 µg/mL (≈ 0.0919 µM); MIC [20]: 0.05 µg/mL (≈ 0.0919 µM); T/C (effect of improving incidence of survival) (P-388 tumor cells; dose 0.16 mg/kg intraperitoneally, only once): 117%; T/C (effect of improving incidence of survival) (P-388 tumor cells; dose 0.63 mg/kg intraperitoneally, only once): 159%; T/C (effect of improving incidence of survival) (P-388 tumor cells; dose 2.5 mg/kg intraperitoneally, only once): 159%; T/C (effect of improving incidence of survival) (P-388 tumor cells; dose 10.0 mg/kg intraperitoneally, only once): 80%; Solubility [21]: soluble in methanol, ethyl acetate, acetone, chloroform, or dimethyl sufoxide; insoluble in water or haxane; LD50 at 336 h (in vivo): 1 to 2 mg/kg
